Measurements from patent publication US12478632B2, “Method for ameliorating progression of renal fibrosis and treating renal fibrosis by 5-(2′,4′-difluorophenyl)-salicylanilide derivatives” (National Defense Medical University, priority 2021, dated 2025).

What was measured:
CD4+ T cells = experiment: OVA-specific T cell proliferation assay (BMDCs co-cultured with OT-II T cells, [3H]thymidine); format: cell-based; conditions: OT-II T cells pulsed with OVA peptide; FIG. 3B
Experimental: (§1) FIG. 3A-3H depict that LCC18 inhibits activation of DCs and systemic immune responses in IgAN model. The fluorescence intensity of CD80^+ in gated CD11c^+ cells (within gated CD11c^+ cells, grey-filled area created by staining with an isotype-matched control antibody) determined by flow cytometry (FIG. 3A). T-cell proliferation measured by [^3H]thymidine (FIG. 3B). BMDCs were incubated for 24 h with IgA ICs and co-cultured with OT-II CD′ T cells pulsed with OVA peptide. P-IgAN mouse model (FIG. 3C, FIG. 3D, FIG. 3E). S-IgAN mouse model (FIG. 3F, FIG. 3G, FIG. 3H). CD3 T-cell proliferation in splenocytes by [^3H]thymidine uptake (FIG. 3C and FIG. 3F). Numbers of CD4^+CD44^hiCD62L^lo (FIG. 3D and FIG. 3G) and CD8^+CD44^hiCD62L^lo-hi (FIG. 3E and FIG. 3H) memory T cells among splenic cells assessed by flow cytometry. WT, wild type. #Not detectable. BMDCs, bone marrow-derived dendritic cells. Bars show the mean±SD of 7 mice per group. *p<0.05, **p<0.01, ***p<0.005, ****p<0.001. ns, no significant difference. Data of FIG. 3B-FIG. 3H were analyzed using ANOVA (with Dunnett's multiple comparisons test).

[1] = system: spontaneous IgAN gddY (S-IgAN) mice; experiment: spontaneous IgAN in gddY mice (S-IgAN) model; format: in vivo
Experimental: (§2) Two complementary mouse models of IgAN—a passive IgAN (P-IgAN) and a spontaneous IgAN in gddY mice (S-IgAN) were used to examine therapeutic effects of LCC18 on renal conditions of IgAN. […] Eight-week-old female C57BL/6 mice were injected with IgA anti-PC intraperitoneally and PnC intravenously for 14 or 28 consecutive days. Treatment with LCC18 (daily dose of 10 mg/kg body weight) dissolved in polyethylene glycol 400 (PEG 400) (Sigma-Aldrich, St. Louis, MO, USA) via an intraperitoneal (IP) route (P-IgAN+LCC18), and another group of IgAN mice was administered vehicle only (PEG 400) as the disease control group (P-IgAN+Vehicle). Mice were killed at days 14 and 28. Age-matched C57BL/6 mice injected with saline (P-WT+Saline) were used as normal controls; (2) a spontaneous IgAN in gddY (S-IgAN) mice, featuring severe glomerular and tubulointerstitial lesions, characterized by mesangial proliferation, and mesangial matrix expansion. LCC18 (S-IgAN+LCC18) or vehicle (S-IgAN+Vehicle) was administered to mice daily beginning at 8 weeks of age and continuing throughout the present invention. The gddY mice were sacrificed at 32 weeks. Age-matched BALB/c mice served as normal controls (S-WT). All animal experiments were conducted with approval of the Institutional Animal Care and Use Committee of the National Defense Medical Center, Taipei, Taiwan, and were conducted in accordance with NIH Guidelines for the Care and Use of Laboratory Animals.
(§3) For the P-IgAN model, the mice received daily at day 7 after disease induction, either LCC18 (10 mg/kg body weight) (P-IgAN+LCC18) or vehicle (P-IgAN+Vehicle) via IP throughout the study. For the S-IgAN model, LCC18 (S-IgAN+LCC18) or vehicle (S-IgAN+Vehicle) was administered to the mice daily throughout the study via IP, beginning at 8 weeks of age. […] This beneficial effect began on day 21 after disease induction and increased until day 28 when mice were sacrificed (FIG. 1C).

CKDs' subject = experiment: summary of effects in kidney and serum of the CKDs' subject; format: in vivo
Text: In summary, the LCC18 attenuates glomerular cell proliferation about 15˜35%, attenuates sclerosis and fibrosis, attenuates crescent formation about 40˜90%, attenuates fibrinoid necrosis about 40˜90% in a kidney of the CKDs' subject.
Further, the LCC18 can regulate renal function and albuminuria, downregulate serum levels of blood urea nitrogen (serum levels of BUN) about 50˜60%, serum levels of creatinine (serum levels of Cr) about 30˜40% and serum levels of IgG anti-dsDNA about 60˜70% of the CKDs' subject.

[2] = system: bone marrow-derived DCs (BMDCs); experiment: DC activation (CD80 in CD11c+ cells) by flow cytometry in IgA ICs-stimulated BMDCs; format: cell-based; conditions: LCC18-treated IgA ICs-stimulated BMDCs; FIG. 3A
Experimental: as §1

[3] = system: passively induced IgAN (P-IgAN) mice; experiment: passively induced IgAN (P-IgAN) mouse model; format: in vivo, C57BL/6 mice
Experimental: as §2, §3

ASLN mice = experiment: accelerated, severe lupus nephritis (ASLN) model; format: in vivo, NZB/WF1 mice
Experimental: To establish ASLN model mice, eight-week-old female NZB/WF1 mice (prior to autoantibody production) were given LPS (Sigma, MO, USA) (0.8 mg/kg body weight) twice a week by intraperitoneal injection. Seven days after the first injection of LPS, seven mice each received either LCC18 (10 mg/kg body weight) or vehicle (polyethylene glycol 400) (Sigma) daily via intraperitoneal injections. Another group of age-matched female NZB/WF1 mice were injected with saline and served as normal controls. All mice were sacrificed 5 weeks after induction of the disease. All animal experiments were performed in compliance with the NIH Guidelines for the Care and Use of Laboratory Animals with approval of the Institutional Animal Care and Use Committee of The National Defense Medical Center, Taipei, Taiwan.
Next, an ASLN model in NZB/W F1 mice, which mimics acute onset of severe LN in human, was validated potential therapeutic effects of LCC18 in the present invention. LN was induced in these mice by intermittent LPS injections to simulate SLE patients following bacterial or viral infections believed to act as environmental triggers. LCC18 was administered daily after the onset of the renal condition in ASLN mice (ASLN+LCC18 mice), while ASLN mice that received vehicle only (ASLN+Vehicle mice) were used as disease control mice.
Urine samples were collected for albuminuria assessment using the ratio of urine albumin/urine creatinine (Cr). Serum blood urea nitrogen (BUN) and Cr levels were determined.
On the other hand, renal tissues were fixed in formalin buffer and paraffin-embedded and stained with hematoxylin and eosin (H&E). Scoring of renal pathology was evaluated.
Levels of anti-dsDNA antibody (Alpha Diagnostic International, TX, USA) were measured using commercial ELISA kits.
Reactive oxygen species (ROS) levels in renal tissues were measured by a lucigenin-enhanced chemiluminescence assay.

UUO mice = experiment: unilateral ureteral obstruction (UUO) model mimicking renal tubulointerstitial lesions; format: in vivo; conditions: days 7 and 14
Text: To establish Unilateral ureteral obstruction (UUO) model for mimicking renal tubulointerstitial lesions (TILs), the mice (8-12 weeks of age) were anesthetized followed by a lateral incision on the back of the mouse. After the left ureter was exposed, it was tied with a silk suture at two points and permanently ligated. Sham-operated mice, which underwent an identical procedure but without ureteric ligation, were used as sham control. After 7 or 14 days, the mice were euthanized, and then, renal tissues, pelvis urine, and renal draining lymph nodes were collected.
LCC18 (10 mg/kg body weight) was administered intraperitoneally 1 day before (preventive group) or 3 days after (therapeutic group) the induction of UUO, or 1 day after the ligation of renal vessels in this model. Diseased mice that received only polyethylene glycol 400 (PEG 400) (Sigma-Aldrich, St. Louis, MO, USA) daily via intraperitoneal injections were used as the vehicle control group. All animal experiments were performed with the approval of the Institutional Animal Care and Use Committee of the National Defense Medical Center, Taiwan, in compliance with the NIH Guide for the Care and Use of Laboratory Animals.
Renal tissues were fixed in 10% buffered formalin, embedded in paraffin, and 3-μm thick sections were cut for haematoxylin and eosin (H&E) staining. Fifty glomeruli were examined in at least two renal tissue sections per slide by light microscopy at ×400 magnification. The percentage of glomeruli showing proliferation, or glomerular sclerosis was determined.
The quantitative analysis of the data obtained from hematoxylin and eosin (H&E) and Masson's trichrome staining of renal histopathological evaluation was used by quantitative imaging software (Pax-it; Paxcam, Villa Park, IL).
Further, in another embodiment, formalin-fixed and paraffin-embedded renal sections were incubated with primary antibodies followed by biotinylated secondary antibodies and avidin-biotin-peroxidase complex (Dako) for IHC staining.

[4] = in a kidney of the CKDs' subject

O=c1oc2ccc(-c3ccc(F)cc3F)cc2c(=O)n1-c1cccc(C(F)(F)F)c1 [LCC18, 6-(2,4-difluorophenyl)-3-(3-(trifluoromethyl)phenyl)-2H-benzo[e][1,3]oxazine-2,4(3H)-dione]
CD4+ T cell proliferation induced by IgA ICs-stimulated BMDCs (CD4+ T cells): inhibited
serum levels of BUN ([1]; S-IgAN+LCC18 vs S-IgAN+Vehicle, daily IP from 8 weeks of age, FIG. 1D): benefited from treatment
serum levels of Cr ([1]; S-IgAN+LCC18 vs S-IgAN+Vehicle, daily IP from 8 weeks of age, FIG. 1E): benefited from treatment
increase in splenic number of CD4+CD44hiCD62Llo memory T cells ([1]; flow cytometry, FIG. 3G): inhibited
increase in splenic number of CD8+CD44hiCD62Llo-hi memory T cells ([1]; flow cytometry, FIG. 3H): inhibited
ROS levels in renal tissues ([1]; vs S-IgAN+Vehicle, FIG. 2B): Significantly reduced
T cell proliferation in splenocytes, [3H] thymidine uptake ([1]; vs S-IgAN+Vehicle, FIG. 3F): significantly decreased
urine levels of albumin (urine albumin/Cr ratio) ([1]; vs S-IgAN+Vehicle, beginning on week 24, continuing to week 32, FIG. 1F): therapeutic effect was also observed
downregulation of serum levels of IgG anti-dsDNA (CKDs' subject; CKDs' subject): 60˜70%
downregulation of serum levels of blood urea nitrogen (BUN) (CKDs' subject; CKDs' subject): 50˜60%
downregulation of serum levels of creatinine (Cr) (CKDs' subject; CKDs' subject): 30˜40%
attenuation of crescent formation (CKDs' subject; [4]): 40˜90%
attenuation of fibrinoid necrosis (CKDs' subject; [4]): 40˜90%
attenuation of glomerular cell proliferation (CKDs' subject; [4]): 15˜35%
sclerosis and fibrosis (CKDs' subject; [4]): attenuates
fluorescence intensity levels of CD11c+CD80+ cells (activation marker for DCs) [2]: Significantly decreased
serum levels of BUN ([3]; P-IgAN+LCC18 vs P-IgAN+Vehicle, 10 mg/kg daily IP from day 7, FIG. 1A): Significantly lower
serum levels of Cr ([3]; P-IgAN+LCC18 vs P-IgAN+Vehicle, 10 mg/kg daily IP from day 7, FIG. 1B): Significantly lower
increase in number of CD4+CD44hiCD62Llo memory T cells in the spleen ([3]; flow cytometry, FIG. 3D): inhibited
increase in number of CD8+CD44hiCD62Llo-hi memory T cells in the spleen ([3]; flow cytometry, FIG. 3E): inhibited
severity of renal lesions (glomerular cell proliferation, sclerosis in glomeruli), H&E ([3]; light microscopy, vs P-IgAN+Vehicle, FIG. 1G-1I): markedly reduced
ROS levels in renal tissues ([3]; vs P-IgAN+Vehicle, FIG. 2A): Significantly reduced
T cell proliferation in splenocytes, [3H] thymidine uptake ([3]; vs P-IgAN+Vehicle, FIG. 3C): significantly decreased
urine levels of albumin (urine albumin/Cr ratio) ([3]; vs P-IgAN+Vehicle, effect began on day 21 and increased until day 28, FIG. 1C): significantly decreased
elevated serum levels of BUN (ASLN mice; ASLN+LCC18 vs ASLN+Vehicle, 10 mg/kg daily IP, FIG. 4A): significantly inhibited
elevated serum levels of Cr (ASLN mice; ASLN+LCC18 vs ASLN+Vehicle, 10 mg/kg daily IP, FIG. 4B): significantly inhibited
serum anti-dsDNA levels (ASLN mice; ELISA, vs ASLN+Vehicle, FIG. 4G): Greatly reduced
CD4+ T cells (CD4+CD44hiCD62Llo T memory cells) in splenocytes (ASLN mice; flow cytometry, FIG. 5A): inhibited
CD8+ T cells (CD8+CD44hiCD62Llo-hi T memory cells) in splenocytes (ASLN mice; flow cytometry, FIG. 5B): inhibited
Treg cell differentiation (CD4+CD25+Foxp3+) in splenocytes (ASLN mice; flow cytometry, FIG. 5C): enhanced
renal levels of ROS (ASLN mice; lucigenin-enhanced chemiluminescence, vs ASLN+Vehicle, FIG. 6): significantly reduced
albuminuria (urine albumin/urine Cr) (ASLN mice; vs ASLN+Vehicle, FIG. 4C): greatly reduced
pathological changes including intrinsic cell proliferation and crescent formation, H&E scoring (ASLN mice; vs ASLN+Vehicle, FIG. 4D-4F): significantly inhibited
renal fibrotic changes (H&E TILs score, Masson's trichrome fibrotic area) (UUO mice; 10 mg/kg IP, vs Vehicle+UUO, FIG. 7A-7D): greatly improved
increased renal expression of Col-III, IHC (UUO mice; vs UUO+Vehicle, FIG. 8): inhibited
increased renal expression of p-Smad2/3, IHC (UUO mice; vs UUO+Vehicle, FIG. 8): inhibited
